Reference: patent publication US8084210B2, “Methods for the assessment of drug response” (Theranostics Laboratory, priority 2008, dated 2011)
Several values for one entry are separate records, joined by “and”; a condition that tells them apart may be missing. Equal entries are not always repeated. Where two headings read alike, the source gives them in different places.

Experiments:
P2Y12 receptor = biological target: T1, P2Y12 receptor (Homo sapiens, UniProt Q9H244); assay: Platelet function by VerifyNow P2Y12 analyser in elective PCI patients given clopidogrel (PRINC trial); format: in vivo; settings: for inhibition at 75 mg / inhibition at 150 mg: human
T1 construct: light transmittance through whole blood, to measure platelet agglutination; from tissue; host or cells: Platelets in citrated whole blood (arterial or venous) of patients
T1 sequence (Q9H244 whole entry): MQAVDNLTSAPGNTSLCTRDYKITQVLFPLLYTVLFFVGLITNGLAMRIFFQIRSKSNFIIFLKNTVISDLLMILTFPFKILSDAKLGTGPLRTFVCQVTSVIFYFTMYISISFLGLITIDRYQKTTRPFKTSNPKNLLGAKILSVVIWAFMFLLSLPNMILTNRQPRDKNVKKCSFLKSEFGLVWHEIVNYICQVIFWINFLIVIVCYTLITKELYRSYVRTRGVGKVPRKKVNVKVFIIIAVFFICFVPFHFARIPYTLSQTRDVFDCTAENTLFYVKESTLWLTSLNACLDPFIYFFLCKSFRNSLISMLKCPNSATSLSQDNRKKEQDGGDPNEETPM
Text: The study protocol was approved by the Northern Regional Ethics Committee of New Zealand. Eligible patients were defined as all-corners for elective percutaneous coronary intervention who were on aspirin and naëve to clopidogrel. […] Patients were randomised into equal groups using a computerised random number generator. Block randomisation was not used, explaining the unbalanced grouping to treatment allocations. Clopidogrel was broken in half and repackaged into gelatine capsules packed with lactose powder to match placebo. Investigators and subjects were blinded to treatment allocation. A target of 120 patients was predefined for completion of the study. […] At discharge patients were randomized to receive either 75 mg or 150 mg once daily for one week and regular 75 mg once daily dosing thereafter. Adherence to the treatment regimen was tested by a phone interview and pill count. Arterial blood was sampled through 6Fr femoral sheaths and transferred immediately to 3.2% citrate 2 ml vacutainer tubes (Cat. #454321 Greiner Vacuette®, Greiner, Kremsmuenster, Austria), using a 20 G needle and syringe. After sheath removal blood was drawn by venepucture directly into vacutainer tubes. After collection the tubes were inverted four times for adequate mixing of the anticoagulant and left for ten minutes at 24 degrees before testing. Platelet function was tested at baseline, two, four and seven hours from first clopidogrel loading and at seven days. […] This device uses fibrinogen coated microbeads, an agonist of adenosine diphosphate (ADP) and light transmittance through whole blood, to measure platelet agglutination. The output of the device is measured as the proprietary platelet response unit (PRU). […] Percent inhibition is reported as the percentage change from baseline using a BASE unit. This BASE unit is derived from a second channel run parallel with the ADP channel using the agonist iso-TRAP (Thrombin Receptor Activating Peptide). From this point “percentage inhibition” will reflect this formula: % Inhibition=[(BASE−PRU)×100]/BASE. […] (2004) and Lev E I et al (2006)). The principal time point of interest for comparisons of genotype to drug response was specified as two hours after the first loading dose as at this point all patients had received only 600 mg. […] The effect of different dosages on response in genotype groups was assessed at four hours.

[1] = cited from earlier work
[2] = tested on: ADP-induced platelet aggregation or activation; settings: low inhibition of ADP-induced platelet aggregation or activation; cited from earlier work
[3] = in vivo; cited from earlier work

COC(=O)[C@H](c1ccccc1Cl)N1CCc2sccc2C1 [clopidogrel, (+)-(S)-methyl 2-(2-chlorophenyl)-2-(6,7-dihydrothieno[3,2-c]pyridin-5(4H)-yl)acetate]
Platelet inhibition (P2Y12 receptor; 75 mg maintenance dose, CYP2C19*2 or *4 carriers): 24+/−18%
Non-responders (seven hour percent inhibition <10%) (P2Y12 receptor; 600 mg (low dose) group, six out of 26): 26%
Platelet inhibition (P2Y12 receptor; 600 mg loading dose, CYP2C19*2 or *4 carriers): 16+/−13%
Non-responders (seven hour percent inhibition <10%) (P2Y12 receptor; 1,200 mg (high dose) group, two out of 37): 5%
Platelet inhibition (P2Y12 receptor; 2 hours after 600 mg, CYP2C19*1*1 carriers): 26+/−20%
Platelet inhibition (P2Y12 receptor; 2 hours after 600 mg, CYP2C19*2, *4 and *17 carriers): 13+/−20%
Platelet inhibition (P2Y12 receptor; four hours, 600 mg loading dose): 23.7%
Platelet inhibition (P2Y12 receptor; four hours, 600 mg loading dose, CYP2C19*1*1 carriers): 35+/−27%
Platelet inhibition (P2Y12 receptor; four hours, 1200 mg loading dose, CYP2C19*1*1 carriers): 51+/−28%
Platelet inhibition (P2Y12 receptor; four hours, 1,200 mg split loading dose): 42%
Platelet inhibition (P2Y12 receptor; higher (150 mg) maintenance dose, CYP2C19*2 or *4 carriers): 49+/−31%
Platelet inhibition (P2Y12 receptor; higher (1200 mg) loading dose, CYP2C19*2 or *4 carriers): 36+/−24%
inhibition at 75 mg (P2Y12 receptor; 75 mg daily maintenance dose, CYP2C19*1*1 carriers): 40%
inhibition at 150 mg (P2Y12 receptor; 150 mg daily maintenance dose, CYP2C19*1*1 carriers): 51%
inhibition at 75 mg (P2Y12 receptor; one week, 75 mg once daily): 28.8%
inhibition at 150 mg (P2Y12 receptor; one week, 150 mg once daily): 49.8%
Platelet inhibition (P2Y12 receptor; seven days, 600 mg loading dose group): 35.7%
Platelet inhibition (P2Y12 receptor; seven days, 1,200 mg split loading dose group): 44.5%
Platelet inhibition (P2Y12 receptor; seven hours, 600 mg loading dose): 28.7%
Platelet inhibition (P2Y12 receptor; seven hours, 1,200 mg split loading dose): 48.9%
Platelet inhibition (P2Y12 receptor; seven hours, two individuals carrying both 2C19 and 2C9 poor responder genotypes): 8% and 11%
Platelet inhibition (P2Y12 receptor; two hours after 600 mg, two P2Y12 H2 haplotype CC homozygotes): < 2%
Bioavailability ([1]; in vivo): approximately 50%
Elimination half life ([1]; in vivo): 7.2 to 7.6 h
Time to peak effect after dosing ([1]; in vivo): six
Share of a dose converted by esterases to inactive metabolites ([1]; inactivation pathway): ~85%
Patients classified as poor responders or resistant [2]: 20-40%

CC(=O)Oc1cc2c(s1)CCN(C(C(=O)C1CC1)c1ccccc1F)C2 (stereo not shown) [prasugrel, 5-[2-cyclopropyl-1-(2-fluorophenyl)-2-oxoethyl]-4,5,6,7-tetrahydrothieno[3,2-c]pyridin-2-yl acetate]
Elimination half life [3]: 3.7 h
